Consider 14 molecules from PubChem BioAssay (NCI).

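Values below derive from 48-hour exposures of cells grown in 96-well plates, with endpoints linearly interpolated between the two concentrations bracketing the appropriate inhibition level. GI50: concentration for 50% inhibition of growth. TGI denotes the concentration required for complete inhibition of growth.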 Bounds are passed on as bounds.

What all share (experiment): NCI anticancer screen, dose series, 48 h
The subject of experiment [1] is NCI-H23 lung.
The subject of experiment [2] is LOX IMVI melanoma.
Experiment [3] deals with RPMI-8226 leukemia.
Experiment [4] relates to EKVX NSCLC.
The subject of experiment [5] is SF-268 CNS.
The subject of experiment [6] is OVCAR-5 ovarian.
The test system of experiment [7] is SK-MEL-2 melanoma.
Experiment [8] has as its system HCC-2998 colon.
The subject of experiment [9] is NCI/ADR-RES ovarian.

`O=C(NC(=O)c1cn(CCN2CCNCC2)c(=O)[nH]c1=O)OCc1ccccc1`: the TGI in experiment [1], in [2], in experiment [3], in [4], in experiment [5] and in experiment [6] was over 100 µM in each case.
Regarding `CN(C)C(=S)Nc1nnc(NC23CC4CC(CC(C4)C2)C3)s1`, the TGI in [2] worked out at 33.8 µM; in experiment [3] it was 51.1 µM; in [4], 59.7 µM; in [5], 48.5 µM; in experiment [7], 44.7 µM; in experiment [8], 35.5 µM.
As for `CSCCC(NC(=O)C(Cc1ccccc1)NC(=O)CNC(=O)CNC(=O)C(N)Cc1ccc(O)cc1)C(=O)O` (stereo not drawn), the TGI in experiment [1], in experiment [2], in experiment [4], in experiment [9], in [5] and in experiment [6] was over 100 µM throughout. Moreover, the TGI in [7] and in [8] was over 100 µM throughout.
Turning to `CN(C)c1cccc(-c2cc(=O)c3ccccc3[nH]2)c1`, the TGI in [1], in experiment [2], in experiment [3], in [4], in [5] and in experiment [8] was over 100 µM in each case. Moreover, the GI50 in experiment [5] was 76.6 µM.
For the molecule `Cc1cccc2c1Oc1cc(Cl)ccc1C2NC(=O)CCN1CCCCC1` (stereo not drawn), the TGI in [1] was 37.5 µM; in experiment [2], 30.2 µM; in experiment [3], 63 µM; in [4], 55.5 µM; in experiment [9], 32 µM; in experiment [5] it was 83.2 µM. Besides, the TGI in experiment [6] was 31.9 µM; in experiment [8] it was 28.3 µM.
For the molecule `CC(C)(O)[C@@H]1CCC(C)([C@H]2[C@@H](O)CC3(C)C4CC(OC5OC(CO)C(O)C(O)C5O)C5C(C)(C)[C@@H](OC6OCC(O)C(O)C6O)CC[C@@]56C[C@@]46CC[C@]23C)O1` (stereo partly drawn), the TGI in experiment [1], in [2], in experiment [3], in experiment [4], in experiment [5] and in [6] was over 100 µM throughout. Besides, the TGI in [7] and in experiment [8] was over 100 µM in each case.
As for `OC1CN(OC/C=C/c2ccccc2)CC(O)C1O` (stereo not drawn), the TGI in experiment [1], in experiment [2], in experiment [3], in experiment [4], in [5] and in [6] was over 100 µM throughout. Besides, the TGI in experiment [7] and in [8] was over 100 µM each time.
Turning to `CN(C)c1nc(N(C)C)nc(N(C)CN(C)c2ccccc2)n1`, the TGI in [1], in [2], in [5], in experiment [7] and in [8] was over 100 µM in each case.
With `COc1ccc2c(=O)c([Se]c3coc4cc(OC)ccc4c3=O)coc2c1`, the TGI in [1], in experiment [2], in experiment [3], in experiment [4], in [5] and in experiment [6] was over 100 µM in each case. Besides, the TGI in [7] and in experiment [8] was over 100 µM throughout.
As for `CC(=O)OC1C=CC2CCN3C(=O)c4cc5c(cc4[C@H]1C23)OCO5` (stereo partly drawn), the TGI in experiment [1], in experiment [2], in experiment [3], in [4] and in [5] was over 100 µM throughout.
On to `CC(/C=C/c1ncccc1OCCCCCC(=O)O)=N\NC1=NCCN1`, for which the TGI in experiment [2], in experiment [3], in [4], in experiment [5], in [6] and in experiment [7] was over 100 µM each time. Moreover, the TGI in experiment [8] is over 100 µM.
As for `NCCCNCCSSCc1ccccc1CSSCCNCCCN`, the TGI in experiment [1], in [2], in experiment [3], in experiment [4], in experiment [5] and in [6] was over 100 µM each time. In addition, the TGI in experiment [7] and in experiment [8] was over 100 µM each time.
With `COc1cc2cc3c4c(cc(OC)c(OC)c4c2cc1OC)CCN3C(=O)CCCC(=O)O`, the TGI in experiment [1], in experiment [2], in [3], in [4], in experiment [5] and in experiment [6] was over 100 µM in each case. In addition, the TGI in experiment [7] and in experiment [8] was over 100 µM in each case.
As for `O=C1CCCCC/C=C2/CC[C@H](Sc3ccccc3)[C@@H]12`, the TGI in [1], in experiment [2], in experiment [3], in experiment [4], in experiment [5] and in experiment [7] was over 100 µM each time.
